Peptide text beside a SMILES is read from it.
Biological target: Cytochrome P450 3A4 (Homo sapiens, UniProt P08684)
Assay: Binding affinity to recombinant CYP3A4 expressed in Escherichia coli assessed as spectral dissociation constant by spectrophotometric equilibrium binding titration method
Type: ADME
Settings: read-out: K

Chain of Cytochrome P450 3A4 (P08684 whole entry): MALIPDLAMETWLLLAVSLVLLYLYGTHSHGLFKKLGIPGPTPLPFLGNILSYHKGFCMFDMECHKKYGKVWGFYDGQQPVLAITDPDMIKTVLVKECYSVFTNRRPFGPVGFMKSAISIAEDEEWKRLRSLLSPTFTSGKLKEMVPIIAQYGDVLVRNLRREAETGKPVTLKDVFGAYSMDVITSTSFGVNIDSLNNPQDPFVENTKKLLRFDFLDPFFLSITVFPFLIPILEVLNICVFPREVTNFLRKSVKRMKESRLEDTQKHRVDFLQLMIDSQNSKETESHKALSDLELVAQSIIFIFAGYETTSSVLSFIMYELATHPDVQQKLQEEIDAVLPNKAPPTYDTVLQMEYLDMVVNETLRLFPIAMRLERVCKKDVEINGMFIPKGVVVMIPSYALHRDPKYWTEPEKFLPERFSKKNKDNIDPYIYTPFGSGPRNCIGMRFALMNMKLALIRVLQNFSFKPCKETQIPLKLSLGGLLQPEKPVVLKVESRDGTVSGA

NC(=O)[C@@H]1CCCN1C(=O)[C@H](Cc1ccccc1)NC(=O)[C@@H]1CCCN1C(=O)[C@@H](N)Cc1ccc(O)cc1 [MORPHICEPTIN] (H-YPFP-NH2)
Kd: 7.8 mM

Source: ChEMBL document CHEMBL1156433, “Multiple sequential steps involved in the binding of inhibitors to cytochrome P450 3A4” (J Biol Chem, 2007)
